system: HBV; assay: Anti-HBV assay (inhibition of HBV replication in HepG2.cl42 cells, HBV DNA by qPCR); format: cell-based, HBV ayw strain; settings: Hepatitis B virus, 96 h, treated four days, HBV DNA quantified by real time PCR, read-out: HBsAg EC50

Structure (SMILES) | EC50
C[C@H]1Cc2noc(N3CCCS3(=O)=O)c2CN1C(=O)Nc1cc(F)c(F)c(F)c1 [Compound 58, (S)-3-(1,1-dioxidoisothiazolidin-2-yl)-6-methyl-N-(3,4,5-trifluorophenyl)-6,7-dihydroisoxazolo[4,3-c]pyridine-5(4H)-carboxamide] | < 100 nM
CC1Cc2noc(-c3ccc(F)cc3F)c2CN1C(=O)Nc1cc(F)c(F)c(F)c1 (centres unmarked) [Compound 3.1, 3-(2,4-difluorophenyl)-6-methyl-N-(3,4,5-trifluorophenyl)-6,7-dihydroisoxazolo[4,3-c]pyridine-5(4H)-carboxamide] | 100 to 1000 nM
C[C@H]1Cc2noc(N3CCCOC3=O)c2CN1C(=O)Nc1cc(F)c(F)c(C(F)F)c1 [Compound 51, (S)—N-(3-(difluoromethyl)-4,5-difluorophenyl)-6-methyl-3-(2-oxo-1,3-oxazinan-3-yl)-6,7-dihydroisoxazolo[4,3-c]pyridine-5(4H)-carboxamide] | < 100 nM
CC1c2c(noc2-c2ccc(F)cc2F)CCN1C(=O)Nc1cc(F)c(F)c(F)c1 (centres unmarked) [Compound 4.1, 3-(2,4-difluorophenyl)-4-methyl-N-(3,4,5-trifluorophenyl)-6,7-dihydroisoxazolo[4,3-c]pyridine-5(4H)-carboxamide] | ≥ 1000 nM
Cc1nc(-c2onc3c2[C@H](C)N(C(=O)Nc2cc(F)c(F)c(F)c2)CC3)cs1 [Compound 30, (S)-4-methyl-3-(2-methylthiazol-4-yl)-N-(3,4,5-trifluorophenyl)-6,7-dihydroisoxazolo[4,3-c]pyridine-5(4H)-carboxamide] | ≥ 1000 nM
C[C@H]1Cc2noc(N3CCC(C)(C)C3=O)c2CN1C(=O)Nc1cc(F)c(F)c(F)c1 [Compound 57, (S)-3-(3,3-dimethyl-2-oxopyrrolidin-1-yl)-6-methyl-N-(3,4,5-trifluorophenyl)-6,7-dihydroisoxazolo[4,3-c]pyridine-5(4H)-carboxamide] | < 100 nM
O=C(Nc1cc(F)c(F)c(F)c1)N1CCc2onc(-c3ccc(F)cc3F)c2C1 [Compound 7.1, 3-(2,4-difluorophenyl)-N-(3,4,5-trifluorophenyl)-6,7-dihydroisoxazolo[4,5-c]pyridine-5(4H)-carboxamide] | 100 to 1000 nM
C[C@H]1Cc2noc(-c3cnn(C)c3)c2CN1C(=O)Nc1cc(F)c(F)c(F)c1 [Compound 31] | 100 to 1000 nM
C[C@H]1Cc2noc(N3CCCOC3=O)c2CN1C(=O)Nc1cc(F)c(F)c(F)c1 [Compound 48, (S)-6-methyl-3-(2-oxo-1,3-oxazinan-3-yl)-N-(3,4,5-trifluorophenyl)-6,7-dihydroisoxazolo[4,3-c]pyridine-5(4H)-carboxamide] | < 100 nM
C[C@H]1Cc2noc(-c3ccc(F)cc3)c2CN1C(=O)Nc1cc(F)c(F)c(F)c1 [Compound 13] | 100 to 1000 nM
C[C@H]1Cc2noc(-c3ccccc3F)c2CN1C(=O)Nc1cc(F)c(F)c(F)c1 [Compound 10] | 100 to 1000 nM
C[C@H]1Cc2noc(-c3cccc(C#N)c3)c2CN1C(=O)Nc1cc(F)c(F)c(F)c1 [Compound 14] | 100 to 1000 nM
Cc1cccc(-c2onc3c2CN(C(=O)Nc2cc(F)c(F)c(F)c2)[C@@H](C)C3)c1 [Compound 23] | ≥ 1000 nM
O=C(Nc1cc(F)c(F)c(F)c1)C1CCc2noc(-c3ccc(F)cc3F)c2C1 (centres unmarked) [Compound 6.1, 3-(2,4-difluorophenyl)-N-(3,4,5-trifluorophenyl)-4,5,6,7-tetrahydrobenzo[c]isoxazole-5-carboxamide] | 100 to 1000 nM
C[C@H]1Cc2noc(-c3cccc(F)c3)c2CN1C(=O)Nc1cc(F)c(F)c(F)c1 [Compound 21] | 100 to 1000 nM
O=C(Nc1cc(F)c(F)c(F)c1)N1CCc2noc(C3CCCCC3)c2C1 [Compound 2.1, 3-cyclohexyl-N-(3,4,5-trifluorophenyl)-6,7-dihydroisoxazolo[4,3-c]pyridine-5(4H)-carboxamide] | 100 to 1000 nM
C[C@H]1Cc2noc(-c3cccc(Cl)c3)c2CN1C(=O)Nc1cc(F)c(F)c(F)c1 [Compound 22] | ≥ 1000 nM
C[C@H]1Cc2noc(N3CCCC3=O)c2CN1C(=O)Nc1ccc(F)c(C#N)c1 [Compound 53, (S)—N-(3-cyano-4-fluorophenyl)-6-methyl-3-(2-oxopyrrolidin-1-yl)-6,7-dihydroisoxazolo[4,3-c]pyridine-5(4H)-carboxamide] | < 100 nM
C[C@H]1Cc2noc(N3CCCOC3=O)c2CN1C(=O)Nc1ccnc(C(F)F)c1 [Compound 52, (S)—N-(2-(difluoromethyl)pyridin-4-yl)-6-methyl-3-(2-oxo-1,3-oxazinan-3-yl)-6,7-dihydroisoxazolo[4,3-c]pyridine-5(4H)-carboxamide] | 100 to 1000 nM
C[C@H]1c2c(noc2C2CCCC2)CCN1C(=O)Nc1cc(F)c(F)c(F)c1 [Compound 44] | ≥ 1000 nM
C[C@H]1Cc2noc(-c3ccccc3)c2CN1C(=O)Nc1cc(F)c(F)c(F)c1 [Compound 15] | 100 to 1000 nM
C[C@H]1Cc2noc(N3CCC(CC(=O)O)C3=O)c2CN1C(=O)Nc1cc(F)c(F)c(F)c1 (stereo partly drawn) [Compound 63, 2-(1-((S)-6-methyl-5-((3,4,5-trifluorophenyl)carbamoyl)-4,5,6,7-tetrahydroisoxazolo[4,3-c]pyridin-3-yl)-2-oxopyrrolidin-3-yl)acetic acid] | ≥ 1000 nM
O=C(Nc1cc(F)c(F)c(F)c1)N1CCc2noc(-c3ccc(F)cc3F)c2C1 [Compound 1.1, 3-(2,4-difluorophenyl)-N-(3,4,5-trifluorophenyl)-6,7-dihydroisoxazolo[4,3-c]pyridine-5(4H)-carboxamide] | 100 to 1000 nM
